Test results from ChEMBL document CHEMBL1201862, “PubChem BioAssay data set” (2004).
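Dose response: 5 concentrations. Exposure: 48 h. Format: 96-well plates. Endpoint: linear interpolation; highest concentration if not reached. Abbreviation: GI50, concentration required for 50% inhibition of growth.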 Active and inactive are the calls of the source. Cut-off read from the data, not from the text of the source: active = GI50 up to about 1.1 µM and inactive = higher.

Experiments:
Assay in all cases: NCI anticancer screen, dose series, 48 h
[1] = tested on: HT-29
[2] = tested on: KM-20L2
[3] = tested on: HOP-62
[4] = tested on: SK-MEL-28
[5] = tested on: OVCAR-3
[6] = tested on: SF-295
[7] = tested on: NCI-H226
[8] = tested on: SK-MEL-5
[9] = tested on: HL-60
[10] = tested on: CCRF-CEM
[11] = tested on: EKVX
[12] = tested on: IGROV-1
[13] = tested on: OVCAR-4
[14] = tested on: K562
[15] = tested on: RPMI-8226
[16] = tested on: Hs-578T
[17] = tested on: MDA-MB-231
[18] = tested on: MDA-MB-435
[19] = tested on: MDA-N
[20] = tested on: DU-145

Measured: GI50

O=C1NC2C=CN(Cc3ccccc3)C=C2C(=O)N2CCCC12 (stereo not drawn)
inactive: [1] > 100 µM | [2] > 100 µM | [3] > 100 µM | [4] > 100 µM | [5] > 100 µM | [6] > 100 µM | [7] > 100 µM | [8] > 100 µM | [9] > 100 µM | [10] > 100 µM | [11] > 100 µM | [12] > 100 µM | [13] > 100 µM

O=C(/C=C\c1cccc2ccccc12)c1cccs1
inactive: [14] 2.56 µM | [1] 5.21 µM | [2] 10.7 µM | [3] 17.7 µM | [4] 14.3 µM | [5] 11.4 µM | [6] 15.6 µM | [8] 13.3 µM | [9] 3.25 µM | [10] 2.74 µM | [11] 12.8 µM | [12] 10.3 µM | [13] 17.7 µM | [15] 2.47 µM

COc1cc(C2C(C(=O)O)=C(COC(C)=O)Oc3cc4c(cc32)OCO4)cc(OC)c1OC(C)=O (stereo not drawn)
inactive: [14] > 100 µM | [1] > 100 µM | [2] > 100 µM | [3] > 100 µM | [4] > 100 µM | [5] > 100 µM | [6] > 100 µM | [8] > 100 µM | [9] > 100 µM | [10] > 100 µM | [11] > 100 µM | [12] > 100 µM | [13] > 100 µM | [15] > 100 µM

O=C(O)COc1ccc(O)c2c1C(=O)CCCC2=O
inactive: [14] > 100 µM | [1] > 100 µM | [2] > 100 µM | [3] > 100 µM | [4] > 100 µM | [5] > 100 µM | [6] > 100 µM | [8] > 100 µM | [9] > 100 µM | [10] > 100 µM | [11] > 100 µM | [12] > 100 µM | [13] > 100 µM | [15] > 100 µM

CC(=O)O/N=C/c1cc2c(cc1Br)OCO2
inactive: [14] > 349 µM | [1] > 349 µM | [2] > 349 µM | [3] > 349 µM | [4] > 349 µM | [5] 137 µM | [6] 291 µM | [8] > 349 µM | [9] > 349 µM | [10] > 349 µM | [11] > 349 µM | [12] > 349 µM | [15] > 349 µM

O=C1Oc2ccccc2C(=O)/C1=C/NC(=S)NCCc1ccccc1
inactive: [14] > 100 µM | [16] 36.6 µM | [1] 68.1 µM | [17] 37.8 µM | [3] 51.8 µM | [4] > 100 µM | [18] 48.6 µM | [5] 67.1 µM | [19] 32.8 µM | [6] 38.5 µM | [20] 23.4 µM | [7] > 100 µM | [8] 45.7 µM | [9] 1.85 µM | [10] 27.9 µM | [11] 63.7 µM | [12] 27 µM | [13] 34.9 µM | [15] 35.2 µM

CCCCc1cc2c(C)cc(=O)oc2c(O)c1O
inactive: [14] 27.4 µM | [16] 22.9 µM | [1] 27.9 µM | [17] 13.6 µM | [3] 23.3 µM | [4] 37.3 µM | [18] 30.6 µM | [5] 29.1 µM | [19] 38.5 µM | [6] 22.2 µM | [20] 32.2 µM | [7] 23.9 µM | [8] 20.7 µM | [9] 18.1 µM | [10] 21.3 µM | [11] 52.8 µM | [12] 24.6 µM | [13] 32.1 µM | [15] 17.5 µM

[O-][S+](c1ccc(Cl)cc1)c1ccccc1C1=NCCN1 (stereo not drawn)
inactive: [14] > 100 µM | [16] > 100 µM | [1] > 100 µM | [17] > 100 µM | [3] > 100 µM | [4] > 100 µM | [18] > 100 µM | [5] > 100 µM | [19] > 100 µM | [6] > 100 µM | [20] > 100 µM | [7] > 100 µM | [8] > 100 µM | [9] > 100 µM | [10] > 100 µM | [11] > 100 µM | [12] > 100 µM | [13] > 100 µM | [15] > 100 µM

CCOc1ccc2c(c1)[n+]([O-])c(-c1ccccc1Cl)c(N)[n+]2[O-]
inactive: [14] > 100 µM | [1] > 100 µM | [2] > 100 µM | [3] > 100 µM | [4] > 100 µM | [5] > 100 µM | [6] > 100 µM | [7] > 100 µM | [8] 90.2 µM | [9] 56.5 µM | [10] 48.2 µM | [11] > 100 µM | [12] > 100 µM | [13] > 100 µM

O=C(O)CCSCCCN1C(=O)c2ccccc2C1=O
inactive: [14] > 100 µM | [1] > 100 µM | [2] > 100 µM | [4] > 100 µM | [5] > 100 µM | [6] > 100 µM | [7] > 100 µM | [8] > 100 µM | [11] > 100 µM | [12] > 100 µM | [13] > 100 µM | [15] > 100 µM

N#Cc1ccc(OC(=O)c2ccc(NC(=N)N)cc2)cc1.c1ccncc1
inactive: [14] 42 µM | [16] > 100 µM | [1] 53.7 µM | [17] > 100 µM | [3] > 100 µM | [4] > 100 µM | [18] 67.8 µM | [5] 30.1 µM | [19] 64.3 µM | [6] > 100 µM | [20] > 100 µM | [7] 50 µM | [8] > 100 µM | [9] 60.1 µM | [10] 22.2 µM | [11] > 100 µM | [12] > 100 µM | [13] > 100 µM | [15] 40.8 µM

COC(OC)C1(c2ccccc2)Oc2ccccc2C1=O (stereo not drawn)
inactive: [14] 65.2 µM | [16] > 100 µM | [1] > 100 µM | [17] > 100 µM | [3] > 100 µM | [4] > 100 µM | [18] > 100 µM | [5] > 100 µM | [19] > 100 µM | [6] 90.2 µM | [20] > 100 µM | [7] > 100 µM | [8] 65.6 µM | [9] > 100 µM | [10] > 100 µM | [11] > 100 µM | [12] > 100 µM | [13] > 100 µM | [15] > 100 µM

COc1cc(C)c(C(=O)/C=C/c2cc(OC)c(O)c(OC)c2)cc1O
inactive: [14] 19.4 µM | [1] 30.6 µM | [2] 26.5 µM | [3] 22.7 µM | [4] 18.6 µM | [5] 25.2 µM | [6] 39 µM | [8] 17 µM | [9] 22.1 µM | [10] 12.5 µM | [11] 32.4 µM | [12] 28.9 µM | [13] 21 µM | [15] > 100 µM
